Measured values: the NIST ThermoML archive (doi:10.1021/acs.jced.5b01053)
± gives the expanded uncertainty stated by the source.

Columns and labels:
[1] = 298.15 K; 101.33 kPa; Crystal; Vibrating tube method
[2] = Solid-liquid equilibrium temperature; conditions: 101 kPa; Crystal; DTA
[3] = Molar enthalpy of transition or fusion; conditions: Crystal; DSC

CS(=O)(=O)c1ccc(C=O)cc1 [4-(methylsulfonyl)benzaldehyde]
mass density [1]: 1289 ± 3 kg/m3
Solid-liquid equilibrium temperature [2]: 431.49 ± 1 K
Molar enthalpy of transition or fusion [3]: 6.26 ± 0.229 kcal/mol
